# In patent publication US11524021B2, “Use of ginsenoside M1 for manufacturing medicament for treating oral cancer” (priority 2018, dated 2022):
# Experiments:
# Assay type in all cases: cell-based
# [1] = system: human oral cancer OECM-1 cells; assay: Viability of human oral cancer OECM-1 cells, Trypan blue exclusion; conditions: 5˜20 μg/ml, 24 h
# Experimental: (§1) Human oral cancer cell line SAS cells (FIG. 1A) or OECM-1 cells (FIG. 1B) were incubated for 24 h with ginsenoside M1 (5˜20 μg/ml), ginsenoside Rh2 (5˜20 μg/ml) or vehicle (0.1% DMSO). The live cell numbers were counted by Trypan blue exclusion method. The data were expressed as mean±SD; n=3. *, ** and *** indicate a significant difference at the level of p<0.05, p<0.01 and p<0.001, respectively, compared to vehicle-control cells. (One-way ANOVA with Dunnett's multiple comparisons test).
# (§2) Plate 5×10^5 human oral cancer cells SAS per 6-cm dish in 2 ml of culture medium and were grown overnight at 37° C. in a 5% CO2 incubator. The cells were incubated for 24 h with ginsenoside M1 (5˜20 μg/ml), ginsenoside Rh2 (5˜20 μg/ml) or vehicle. Each group contains a final DMSO concentration of 0.1%. Thereafter, the cell numbers were counted by Trypan blue exclusion method. […] The data were expressed as mean±SD; n=3. *, ** and *** indicate a significant difference at the level of p<0.05, p<0.01 and p<0.001, respectively, compared to vehicle-control cells. (One-way ANOVA with Dunnett's multiple comparisons test).
# [2] = system: normal human gingival epithelioid cell line SG; assay: Toxicity to normal human gingival epithelioid SG cells, Trypan blue exclusion; conditions: 20 μg/ml, 24 h
# Experimental: as §1, with “normal human gingival epithelioid” for “oral cancer”, “SG” for “SAS”, “cells” for “cells (FIG. 1A) or OECM-1 cells (FIG. 1B)”, “n=3.” for “n=3. *,”, “of” for “of p<0.05,”
# as §2, with “5×10^5 normal” for “5×10^5”, “gingival epithelioid cell line SG” for “oral cancer cells SAS”, “n=3.” for “n=3. *,”, “of” for “of p<0.05,”
# [3] = system: human oral cancer cells OECM-1; assay: Apoptotic DNA breaks, TUNEL assay by flow cytometry; conditions: 24 h
# Experimental: Human oral cancer cell line OECM-1 cells were incubated for 24 h with ginsenoside M1 (10˜20 μg/ml), 50 μM cistaplatin (CDDP) or vehicle (0.1% DMSO). (FIG. 3A) The apoptotic DNA breaks was assayed by terminal deoxynucleotidyl transferase dUTP nick end labeling (TUNEL) assay using flow cytometry. (FIG. 3B) The cell cycle distribution was determined by PI staining using flow cytometry. (FIG. 3C) The apoptosis level was measured by PI/Annexin V double staining assay using flow cytometry. (FIG. 3D) The activation levels of caspase-9 and caspase-3 were measured by detecting the degradation of pro-caspase-9 and pro-caspase-3 using Western blotting. […] (One-way ANOVA with Dunnett's multiple comparisons test).
# To gain further insight into the mode of action of ginsenoside M1, three assays targeting hallmarks of apoptosis, namely (1) the apoptotic DNA breaks assayed by terminal deoxynucleotidyl transferase dUTP nick end labeling (TUNEL) assay, (2) the cell cycle assayed by flow cytometry after propidium iodide (PI)-staining nuclei, (3) the PI/Annexin V double staining assay, and (4) caspase activation were performed. Plate 1×10^6 human oral cancer cells OECM-1 per 6-cm dish in 2 ml of culture medium and were grown overnight at 37° C. in a 5% CO2 incubator. The cells were incubated for 24 h with ginsenoside M1 (10˜20 μg/ml), 50 μM cistaplatin (CDDP) or vehicle. Each group contains a final DMSO concentration of 0.1%. Thereafter, three assays were performed. […] The cells in sub-G1 phase increased after treatment with ginsenoside M1 and CDDP. (FIG. 3B). […] The data were expressed as mean±SD; n=3. ** and *** indicate a significant difference at the level of p<0.01 and p<0.001, respectively, compared to vehicle-control cells. (One-way ANOVA with Dunnett's multiple comparisons test).
structure (smiles),measurement,setting,value
"CC(C)=CCC[C@](C)(O[C@@H]1OC(CO)[C@@H](O)[C@@H](O)C1O)[C@H]1CC[C@]2(C)C1[C@H](O)CC1[C@@]3(C)CC[C@H](O)C(C)(C)C3CC[C@]12C (stereo partly drawn) [ginsenoside M1, 20-O-β-D-glucopyranosyl-20(S)-protopanaxadiol]",cell numbers of human oral cancer OECM-1 cells,[1],dose-dependently inhibited
same,reduction of SG cell number compared to control cells,[2],50%
same,apoptotic DNA breaks in OECM-1 cells,[3]; 10 μg/ml,not 10 μg/ml ginsenoside M1 significantly induced
same,apoptotic DNA breaks in OECM-1 cells,[3]; 20 μg/ml,significantly induced
